US20090270450A1, “CHEMICAL COMPOUNDS” (ASTRAZENECA AB, priority 2006, published 2009)
Where a name gives a salt, the structure may show the parent alone.

The molecules below were run against T1, His-tagged kinase domain of CSF-1R (amino acids 568-912) (Homo sapiens, UniProt P07333) (assay: Assay 1: CSF-1R in vitro AlphaScreen assay). Settings: phosphorylation of biotinylated pEY substrate; 0.57 nM CSF-1R, 90 μM ATP.
T1 construct: The His-tagged kinase domain of CSF-1R (i.e., amino acids 568-912, GeneBank ID NM_005211); His; made in house; host or cells: baculovirus infected SF+Express insect cells
T1 sequence (P07333 568-912): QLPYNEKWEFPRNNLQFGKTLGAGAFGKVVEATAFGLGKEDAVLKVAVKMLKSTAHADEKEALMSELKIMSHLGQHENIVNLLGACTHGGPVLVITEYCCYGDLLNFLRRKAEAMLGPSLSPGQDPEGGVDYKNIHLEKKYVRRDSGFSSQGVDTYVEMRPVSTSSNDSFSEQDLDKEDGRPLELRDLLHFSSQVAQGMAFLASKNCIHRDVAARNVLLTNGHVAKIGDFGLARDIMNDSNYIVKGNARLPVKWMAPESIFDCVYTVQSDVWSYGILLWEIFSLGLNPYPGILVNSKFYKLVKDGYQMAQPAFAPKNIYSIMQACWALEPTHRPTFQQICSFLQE
Type: biochemical
Description: Assay 1: CSF-1R in Vitro AlphaScreen Assay
Activity of purified CSF-1R was determined in vitro using an Amplified Luminescent Proximity Homogeneous Assay (ALPHA)(Perkin Elmer), which measures phosphorylation of the CSF-1R substrate, biotinylated poly-glutamine-tyrosine peptide (PEY-HTRF CisBio 61GT0BLD), as described below. The His-tagged kinase domain of CSF-1R (i.e., amino acids 568-912, GeneBank ID NM_005211; (see page 25 lines 13-19 of WO 2006/067445 for the sequence listing)) was purified from baculovirus infected SF+Express insect cells (1.4×10^6 cells/ml), French pressed and chromatographed through subsequent Qiagen Ni-NTA, Superflow Mono Q HR 10/10, and Superdex 200 SEC columns. Typical yield was 245 μg/l of cell pellet at >95% purity.
The phosphorylation of the CSF-1R substrate in the presence and absence of the compound of interest was determined. Briefly, 0.57 nM of purified CSF-1R, 5 nM pEY substrate, and compound were preincubated in 1× buffer for 30 minutes at 25° C. Reactions were initiated with addition of 90 μM adenosine triphosphate (ATP) in 1× buffer and incubated at 25° C. for 60 minutes and reactions stopped by addition of 5 μl of detection mix consisting of 136 mM NaCl, 102 mM ethylenediamine tetraacetic acid, 1.65 mg/ml BSA, 40 ug/ml Streptavidin donor beads (Perkin Elmer 6760002), 40 ug/ml pTyr100 acceptor beads (Perkin Elmer 6760620). Plates were incubated at 25° C. for 18 hours in the dark. Phosphorylated substrate was detected by an EnVision plate reader (Perkin Elmer) 680 nm excitation, 520-620 nm emission. Data was graphed and IC50s calculated using Excel Fit (Microsoft).

| IC50 | Structure (SMILES) |
| --- | --- |
| < 3 nM | CCOc1cc2ncc(C(N)=O)c(Nc3cccc(Cl)c3Cl)c2cc1C1CCN(C)CC1 [Example 45, 4-[(2,3-Dichlorophenyl)amino]-7-ethoxy-6-(1-methylpiperidin-4-yl)quinoline-3-carboxamide] |
| 7 nM | CCOc1cc2ncc(C(N)=O)c(Nc3ccc(F)cc3F)c2cc1-c1ccc(=O)[nH]c1 [Example 59, 4-[(2,4-Difluorophenyl)amino]-7-ethoxy-6-(6-oxo-1,6-dihydropyridin-3-yl)quinoline-3-carboxamide] |
| 5 nM | CCOc1cc2ncc(C(N)=O)c(Nc3ccc(F)cc3F)c2cc1CCCO [Example 16, 4-[(2,4-Difluorophenyl)amino]-7-ethoxy-6-(3-hydroxypropyl)quinoline-3-carboxamide] |
| 35 nM | CCOc1cc2ncc(C(N)=O)c(Nc3ccc(F)cc3F)c2cc1-c1c(C)noc1C [Example 32, 4-[(2,4-Difluorophenyl)amino]-6-(3,5-dimethylisoxazol-4-yl)-7-ethoxyquinoline-3-carboxamide] |
| < 3 nM | CCOc1cc2ncc(C(N)=O)c(Nc3cccc(Cl)c3F)c2cc1C1CCN(C)CC1 [Example 44, 4-[(3-Chloro-2-fluorophenyl)amino]-7-ethoxy-6-(1-methylpiperidin-4-yl)quinoline-3-carboxamide] |
| 18 nM | CCOc1cc2ncc(C(N)=O)c(Nc3ccc(F)cc3F)c2cc1C1CCN(C(C)C)CC1 [Example 46, 4-[(2,4-Difluorophenyl)amino]-7-ethoxy-6-(1-isopropylpiperidin-4-yl)quinoline-3-carboxamide] |
| 57 nM | COc1cc2c(Nc3ccc(Cl)c(Cl)c3)c(C(N)=O)cnc2cc1C1CC1 [Example 29, 7-Cyclopropyl-4-[(3,4-dichlorophenyl)amino]-6-methoxyquinoline-3-carboxamide] |
| 5 nM | CCOc1cc2ncc(C(N)=O)c(Nc3ccc(C)cc3F)c2cc1C1CCN(C)CC1 [Example 42, 7-Ethoxy-4-[(2-fluoro-4-methylphenyl)amino]-6-(1-methylpiperidin-4-yl)quinoline-3-carboxamide] |
| 3 nM | COc1cc2ncc(C(N)=O)c(Nc3ccc(F)cc3F)c2cc1CCCN(C)C [Example 9, 4-[(2,4-Difluorophenyl)amino]-6-[3-(dimethylamino)propyl]-7-methoxyquinoline-3-carboxamide] |
| 8 nM | COc1cc2ncc(C(N)=O)c(Nc3cccc(Cl)c3Cl)c2cc1CCCO [Example 19, 4-[(2,3-Dichlorophenyl)amino]-6-(3-hydroxypropyl)-7-methoxyquinoline-3-carboxamide] |
| 14 nM | CCOc1cc2ncc(C(N)=O)c(Nc3ccc(F)cc3F)c2cc1C1=CCN(C(C)=O)CC1 [Example 41, 6-(1-Acetyl-1,2,3,6-tetrahydropyridin-4-yl)-4-[(2,4-difluorophenyl)amino]-7-ethoxyquinoline-3-carboxamide] |
| 26 nM | CCOc1cc2ncc(C(N)=O)c(Nc3cccc(Cl)c3Cl)c2cc1CCCO [Example 24, 4-[(2,3-Dichlorophenyl)amino]-7-ethoxy-6-(3-hydroxypropyl)quinoline-3-carboxamide] |
| 10 nM | COc1cc2ncc(C(N)=O)c(Nc3ccc(F)cc3F)c2cc1C1CCN(C)CC1 [Example 51, 4-[(2,4-Difluorophenyl)amino]-7-methoxy-6-(1-methylpiperidin-4-yl)quinoline-3-carboxamide] |
| 96 nM | CCOc1cc2ncc(C(N)=O)c(Nc3ccc(F)cc3F)c2cc1-c1ccc[nH]1 [Example 33, 4-[(2,4-Difluorophenyl)amino]-7-ethoxy-6-(1H-pyrrol-2-yl)quinoline-3-carboxamide] |
| 22 nM | CCOc1cc2ncc(C(N)=O)c(Nc3ccc(Cl)c(Cl)c3)c2cc1CCCO [Example 23, 4-[(3,4-Dichlorophenyl)amino]-7-ethoxy-6-(3-hydroxypropyl)quinoline-3-carboxamide] |

The molecules below were run against T1, His-tagged kinase domain of CSF-1R (amino acids 568-912) (assay: Assay 2: CSF1R in-vitro AlphaScreen assay). Settings: phosphorylation of biotinylated pEY substrate; 0.46 nM CSF-1R, 12 mM ATP mix.
Type: biochemical
Description: Assay 2: CSF1R in-Vitro AlphaScreen Assay
Activity of purified CSF-1R was determined in-vitro using an Amplified Luminescent Proximity Homogeneous Assay (ALPHA) (Perkin Elmer, Mass.), which measures phosphorylation of CSF-1R substrate, biotinylated poly-glutamine-tyrosine peptide (pEY-HTRF CisBio 61GT0BLD), as described below. The His-tagged kinase domain of CSF-1R (i.e., amino acids 568-912, GeneBank ID NM_005211) was purified from baculovirus infected SF+Express insect cells (1.4×10^6 cells/ml), French pressed and chromatographed through subsequent QIAgen Ni-NTA, Superflow Mono Q HR 10/10, and Superdex 200 SEC columns. Typical yield was 322 ug/l of cell pellet at >95% purity. The phosphorylation of the CSF-1R substrate in the presence and absence of the compound of interest was determined. Briefly, 5 ul of Enzyme/Substrate/adenosine triphosphate (ATP) mix consisting of 0.46 nM of purified CSF-1R, 12 nM pEY substrate, and 12 mM ATP in 1.2× buffer was preincubated with 2 ul of compound for 20 minutes at 25° C. Reactions were initiated with 5 ul of Metal mix consisting of 24 mM MgCl2 in 1.2× buffer and incubated at 25° C. for 90 minutes and reactions were stopped by addition of 5 ul of Detection mix consisting of 20 mM HEPES, 102 mM ethylenediamine tetraacetic acid, 1.65 mg/ml BSA, 136 mM NaCl, 40 ug/ml Streptavidin donor beads (Perkin Elmer, Mass., Catalog #6760002), and 40 ug/ml phosphotyrosine-specific antibody coated acceptor beads (Perkin Elmer, Mass., Catalog #6760620). Plates were incubated at 25° C. for 18 hours in the dark. Phosphorylated substrate was detected by an EnVision plate reader (Perkin Elmer) 680 nm excitation, 520-620 nm emission. Data was graphed and IC50s calculated using Excel Fit (Microsoft). […] For example the following results were obtained in an assay substantially similar to one or other of the assays described hereinabove: […]

| IC50 | Structure (SMILES) |
| --- | --- |
| 32 nM | COc1cc2ncc(C(N)=O)c(Nc3ccc(F)cc3F)c2cc1C1CCN(C(C)C)CC1 [Example 53, 4-[(2,4-Difluorophenyl)amino]-6-(1-isopropylpiperidin-4-yl)-7-methoxyquinoline-3-carboxamide] |
| 30 nM | CCOc1cc2ncc(C(N)=O)c(Nc3ccc(C)cc3F)c2cc1C1CCN(C(C)=O)CC1 [Example 56, 6-(1-Acetylpiperidin-4-yl)-7-ethoxy-4-[(2-fluoro-4-methylphenyl)amino]quinoline-3-carboxamide] |
| 52 nM | CCOc1cc2ncc(C(N)=O)c(Nc3ccc(C)cc3F)c2cc1C1CCN(C(=O)[C@@H](C)O)CC1 [Example 58, 7-Ethoxy-4-[(2-fluoro-4-methylphenyl)amino]-6-{1-[(2R)-2-hydroxypropanoyl]piperidin-4-yl}quinoline-3-carboxamide] |
| 71 nM | CCOc1cc2ncc(C(N)=O)c(Nc3ccc(C)cc3F)c2cc1C1CCN(C(=O)CCOC)CC1 [Example 57, 7-Ethoxy-4-[(2-fluoro-4-methylphenyl)amino]-6-[1-(3-methoxypropanoyl)piperidin-4-yl]quinoline-3-carboxamide] |
| 4 nM | COc1cc2ncc(C(N)=O)c(Nc3ccc(C)cc3F)c2cc1C1CCN(CCO)CC1 [Example 60, 4-[(2-Fluoro-4-methylphenyl)amino]-6-[1-(2-hydroxyethyl)piperidin-4-yl]-7-methoxyquinoline-3-carboxamide hydrochloride] |
| 22 nM | CCOc1cc2ncc(C(N)=O)c(Nc3ccc(F)cc3F)c2cc1C1CCN(C(C)C)CC1 [Example 46, 4-[(2,4-Difluorophenyl)amino]-7-ethoxy-6-(1-isopropylpiperidin-4-yl)quinoline-3-carboxamide] |
| 8 nM | COc1cc2ncc(C(N)=O)c(Nc3cccc(Cl)c3F)c2cc1C1CCN(C(C)C)CC1 [Example 54, 4-[(3-Chloro-2-fluorophenyl)amino]-6-(1-isopropylpiperidin-4-yl)-7-methoxyquinoline-3-carboxamide] |
| 14 nM | COc1cc2ncc(C(N)=O)c(Nc3ccc(C)cc3F)c2cc1C1CCN(C(C)C)CC1 [Example 52, 4-[(2-Fluoro-4-methylphenyl)amino]-6-(1-isopropylpiperidin-4-yl)-7-methoxyquinoline-3-carboxamide] |
